“Also recorded” adds a separate entry of the source.
What was measured:
[1] = test system: myoblasts; assay: Intracellular calcium mobilization in myoblasts (Fluo-4 Assay); type: cell-based, human; details: for intracellular calcium on stimulation with the substance: control and patient myoblasts, live imaging; for intracellular calcium mobilization in patient myoblasts stimulated with CpG-A: pre-treatment, concentration not given
Experimental: Intracellular calcium mobilization was measured in myoblasts using the Fluo-4 Assay from Invitrogen according to the manufacturer's directions and as defined previously. Cells were loaded with 1 μm Fluo-4 for 30 min at 37° C. in 5% CO2/95% O2, as described previously […]. The plates were then transferred to a temperature-controlled stage (Harvard Apparatus, Holliston, Mass., USA) on an Olympus IX-70 inverted microscope. Cultures were visualized using a 40×0.7 numerical aperture fluorite water-immersion objective (TC-SP8 Leica).
To evaluate the link between muscle damage and inflammation, we explored TLR ligand involvement in the control of intracellular Ca2+ dynamics, as its intracellular increase is the hallmark of rhabdomyolysis. The levels of intracellular Ca2+ recorded using live imaging of resting cells were equivalent among control and patient cells. […] This effect observed with patient cells was specific for TLR9 ligands since no response was observed following exposure to LPS or Imiquimod in both patient and control cells. Pre-treatment with 10 μM of chloroquine or ODN-i abolished intracellular calcium mobilization in patient cells in presence of CpG-A completely. […] To obtain additional evidence for the role of inflammation in muscle damage, we measured ATP production in myoblasts following stimulation with CpG-A; we found an impairment of ATP production following stimulation with inflammatory stimuli in patient cells compared to control. To confirm the deleterious effect of TLR9 ligands in patient myoblasts, we incubated myoblasts with increasing doses of CpG-A and measured cellular mortality at different time point as accessed by the viability assay. Myoblasts from patients were exclusively sensitive to TLR9 ligands.

[2] = biological target: T1, TLR9 (Homo sapiens, UniProt Q9NR96); assay: IL-6 secretion of myoblasts stimulated with CpG-A (TLR9 ligand) after pre-treatment with TLR9 antagonists; type: cell-based; details: myoblasts pre-treated with the substance, then stimulated with CpG-A
T1 construct: endogenous in cells; host or cells: primary human CD56+ myoblasts from muscle biopsies
T1 sequence (Q9NR96 26-1032): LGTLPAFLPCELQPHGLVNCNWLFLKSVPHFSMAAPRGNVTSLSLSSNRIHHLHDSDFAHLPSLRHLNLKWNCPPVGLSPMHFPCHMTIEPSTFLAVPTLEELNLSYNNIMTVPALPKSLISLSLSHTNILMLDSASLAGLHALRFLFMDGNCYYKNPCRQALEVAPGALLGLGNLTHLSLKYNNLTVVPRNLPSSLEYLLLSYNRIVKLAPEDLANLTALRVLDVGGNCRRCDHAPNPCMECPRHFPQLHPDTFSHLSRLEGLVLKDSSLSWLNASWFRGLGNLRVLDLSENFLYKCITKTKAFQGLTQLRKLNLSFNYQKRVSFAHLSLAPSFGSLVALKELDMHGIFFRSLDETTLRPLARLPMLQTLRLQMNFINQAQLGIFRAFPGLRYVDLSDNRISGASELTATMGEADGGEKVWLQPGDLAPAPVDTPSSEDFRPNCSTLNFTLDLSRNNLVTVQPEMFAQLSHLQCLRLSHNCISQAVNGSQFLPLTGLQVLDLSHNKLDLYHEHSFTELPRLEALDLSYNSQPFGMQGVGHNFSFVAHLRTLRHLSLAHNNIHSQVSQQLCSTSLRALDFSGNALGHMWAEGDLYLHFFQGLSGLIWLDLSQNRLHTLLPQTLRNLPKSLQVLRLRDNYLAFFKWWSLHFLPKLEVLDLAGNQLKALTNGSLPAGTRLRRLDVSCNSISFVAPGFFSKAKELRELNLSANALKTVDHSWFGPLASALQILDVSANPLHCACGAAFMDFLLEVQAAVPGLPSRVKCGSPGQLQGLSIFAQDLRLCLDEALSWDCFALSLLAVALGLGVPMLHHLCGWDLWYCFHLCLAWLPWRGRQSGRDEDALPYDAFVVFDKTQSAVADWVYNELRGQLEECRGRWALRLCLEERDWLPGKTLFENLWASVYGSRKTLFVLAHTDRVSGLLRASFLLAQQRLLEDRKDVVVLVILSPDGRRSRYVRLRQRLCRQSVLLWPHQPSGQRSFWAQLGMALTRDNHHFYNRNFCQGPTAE
Experimental: Human primary myoblasts were isolated and grown as described. CD56+ myoblasts were isolated by flow cytometry cell sorting using an anti CD56-APC conjugated antibody (e. Biosciences) and routinely maintained in F10 medium supplemented with 20% Fetal Bovine Serum (FBS).
After 12 hours of TLR stimulation of DC at 37° C. in humidified air containing 5% CO2, the concentrations of human IL-8, IL-6, tumor necrosis factor (TNF)-α, IL-1β, IL-10, IL-4, Monocyte Chemoattractant Protein-1 (MCP-1), RANTES (Regulated on Activation, Normal T cell Expressed and Secreted), and Macrophage Inflammatory Protein (MIP)-1-α and β in the culture supernatants were measured with a human cytokine Cytometric Bead Assay (CBA) kit (BD Biosciences, San Jose, Calif.) in accordance with the manufacturer's instructions. In brief, 50 μL of supernatant was mixed with 50 μL of mixed capture beads, and a standard curve was generated. After 3 hours of incubation at room temperature, the samples were washed and suspended in Phosphate-Buffered Saline (PBS) and then analyzed by flow cytometry (ARIA II; BD Biosciences) with CBA Analysis Software (FCAP Array version 3.0; Soft Flow, St Louis Park, Minn.). The results are expressed in picograms per milliliter. […]

[3] = Treatment of lipin-1 patients with hydroxychloroquine: muscle pain and serum cytokines; type: in vivo, human; details: two patients, 6 mg/Kg/day, at three months of treatment
Experimental: Two patients were treated with hydroxychloroquine (Plaquenil®, 6 mg/Kg/day).

Compound	intracellular calcium on stimulation with the substance [1]	secretion of IL-6 after stimulation by CpG-A [2]	intracellular calcium mobilization in patient myoblasts stimulated with CpG-A [1]	further results
CC(C)Cn1cnc2c(N)nc3ccccc3c21 [Imiquimod, imiquimod]	no response	–	–	–
CCN(CC)CCCC(C)Nc1ccnc2cc(Cl)ccc12 (stereo not shown) [chloroquine]	–	attenuate or abolish; also recorded: abolish	abolish	intracellular calcium mobilization in presence of CpG-A ([1]; patient cells (myoblasts), pre-treatment with 10 μM): abolished
O=C1CN(/N=C/c2ccc(-c3ccc([N+](=O)[O-])cc3)o2)C(O)=N1 [dantrium]	–	–	–	elevation of intracellular calcium ([1]; patient myoblasts, chelation of intracellular calcium): inhibited
CCN(CCO)CCCC(C)Nc1ccnc2cc(Cl)ccc12 (stereo not shown) [hydroxychloroquine]	–	–	–	muscle pain [3]: decrease; pro-inflammatory cytokines (IL-8, RANTES, MCP-1) in sera [3]: dramatic decrease
C[C@H](CCC(=O)O)C[C@H](C)C[C@H](C)C(=O)/C=C(\O)[C@H](C)C[C@H](C)C/C=C/[C@@H](C)[C@@H](O)[C@@H](C)[C@@H](O)C[C@@H]1CC[C@@](C)([C@H]2CC[C@@](C)([C@@H](C)O)O2)O1 [ionomycin]	induced a rapid calcium flux	–	–	–
COc1cc(NC(C)CCCN)c2ncccc2c1 (stereo not shown) [primaquine]	–	attenuate or abolish; also recorded: abolish	abolish	–

From patent US10653687B2, “Methods and pharmaceutical compostions for treating rhabdomyolysis” (INSERM (INSTITUT NATIONAL DE LA SANTE ET DE LA RECHERCHE …, priority 2015, dated 2020)
